In a melting point compilation (Tetko et al.):

For `Oc1c(Cl)cc(Cl)c(Cl)c1Cl`, which melting point is on record?
Its melting point is 70 °C.

With `CCC(C)C(NC(=O)OCC1c2ccccc2-c2ccccc21)C(=O)O` (centres undefined) as the molecule, how does the melting point read?
The melting point was 146 to 149 °C.

Which melting point does the source give for `FC(F)(F)c1ccnc(S)n1` here?
The melting point was 161 to 166 °C.

Which melting point does the source give for `O=C(N[C@H]1CC=CC[C@H]1C(=O)O)OCc1ccccc1` (relative stereo) here?
The melting point was 118 to 124 °C.

For `Nc1ccc(Cl)nc1Cl`, which melting point is on record?
The melting point was 122 to 123 °C.

With `CN=C1SC(CC(=O)O)C(=O)N1C` (centres undefined) as the molecule, how does the melting point read?
The melting point was 157 to 159 °C.

Which melting point does the source give for `CC(=NNc1nc(C)cc(C)n1)c1ccccc1C` here?
The melting point was 176 °C.

Which melting point does the source give for `COC(=O)c1ccc(NS(=O)(=O)c2ccc(C)cc2)c(NS(=O)(=O)c2ccc(C)cc2)c1` here?
Its melting point is 180 to 182 °C.

Which melting point does the source give for `CCOc1ccc(NC(=O)CC(C)O)cc1` (centres undefined) here?
The melting point was 160 °C.

Which melting point does the source give for `Nc1cc(-c2ccccc2)ccc1O` here?
The melting point was 200 °C.

For `CN(C)C1=C(C=C(c2ccc(F)cc2)c2ccc(F)cc2)C(=O)N(c2ccccc2)C1=O`, which melting point is on record?
Its melting point is 157 °C.

Which melting point does the source give for `Nc1cccc2nsnc12` here?
The melting point was 68 °C.

For `O=C(Cl)c1csc2ccc(Br)cc12`, which melting point is on record?
Its melting point is 125 to 126 °C.

With `N#CC(C#N)=C1C(=O)NN(c2ccccc2)C1=O` as the molecule, how does the melting point read?
The melting point was 289 °C.

Which melting point does the source give for `CC1=NCCNc2c1c(=O)n(-c1ccccc1)c1ccccc21` here?
Its melting point is 221 °C.

With `O=C1NC(=O)C(=Cc2ccc(-c3ccccc3)o2)C(=O)N1` as the molecule, how does the melting point read?
Its melting point is 270 °C.

For `Cc1ccc(NC(N)=S)cc1`, which melting point is on record?
The melting point was 186 to 188 °C.

Which melting point does the source give for `Oc1ccc(C2CCCCC2)cc1` here?
Its melting point is 133 °C.

For `O=C(O)CSCCS(=O)(=O)c1ccc(Cl)cc1`, which melting point is on record?
The melting point was 127 to 129 °C.

Which melting point does the source give for `Cc1cc(C)c2c(N)n[nH]c2n1` here?
The melting point was 280 °C.

Which melting point does the source give for `S=C(Nc1ccccc1)N1CC(c2ccccc2)CC1c1ccccc1` (centres undefined) here?
The melting point was 188 °C.

With `CCCC1C2C(=O)N(c3ccccc3)C(=O)C2ON1c1ccccc1` (centres undefined) as the molecule, how does the melting point read?
The melting point was 107 to 108 °C.

With `Nc1cc(C(=O)O)ccc1O` as the molecule, how does the melting point read?
The melting point was 198 to 205 °C.

With `NC(CCC(=O)NC(CS)C(=O)NCC(=O)O)C(=O)O` (centres undefined) as the molecule, how does the melting point read?
Its melting point is 195 °C.

Which melting point does the source give for `S=C=Nc1c(Cl)cccc1Cl` here?
The melting point was 43 °C.

Which melting point does the source give for `N=C(N)c1ccc(N)cc1` here?
The melting point was 182 °C.

For `O=C1OC(=O)c2c(Br)c(Br)c(Br)c(Br)c21`, which melting point is on record?
Its melting point is 275 °C.

Which melting point does the source give for `Cc1cccc(NC(=O)C(F)(F)F)c1C(=O)O` here?
Its melting point is 168 to 169 °C.

Which melting point does the source give for `OC(c1ccccc1)C(O)(c1ccccc1)c1ccccc1` (centres undefined) here?
Its melting point is 163 °C.

With `Cc1cccnc1C#N` as the molecule, how does the melting point read?
Its melting point is 86 °C.

Which melting point does the source give for `C=CC(C)Cl` (centres undefined) here?
The melting point was -50 °C.

Which melting point does the source give for `O=C(O)CCc1ccccc1` here?
The melting point was 107 °C.

Which melting point does the source give for `CC(=O)Nc1ccc(Br)c(F)c1` here?
Its melting point is 151 °C.

For `OCc1csc(N2CCOCC2)n1`, which melting point is on record?
Its melting point is 118 to 120 °C.

Which melting point does the source give for `Cc1ccc2sccc2c1` here?
Its melting point is 35 to 36 °C.

Which melting point does the source give for `CC(C)(C)c1cc(C=O)cc(C(C)(C)C)c1` here?
Its melting point is 82 to 87 °C.

With `O=Cc1cccc2ccsc12` as the molecule, how does the melting point read?
Its melting point is 42 to 43.5 °C.

For `CCNCCO`, which melting point is on record?
Its melting point is -6 °C.

Which melting point does the source give for `O=S(=O)(Oc1ccc(Cl)cc1Cl)c1ccccc1` here?
The melting point was 45.5 °C.

With `Cc1cc(-c2cc(C)c(N)c(C)c2)cc(C)c1N` as the molecule, how does the melting point read?
The melting point was 170 °C.

For `CCC1CN2CCc3cc(OC)c(OC)cc3C2CC1CC1NCCc2cc(O)c(OC)cc21` (centres undefined), which melting point is on record?
Its melting point is 116 °C.

For `N#CC1=C(N)N2C(=C(C#N)C1c1ccccc1)Sc1ccccc12` (centres undefined), which melting point is on record?
Its melting point is 205 °C.

For `Cc1cc(Cl)nn1C`, which melting point is on record?
The melting point was 47.5 °C.

For `COc1nccnc1N(C(C)=O)S(=O)(=O)c1ccc(N)cc1`, which melting point is on record?
The melting point was 199 °C.

For `O=C(c1ccccc1)c1ccc(Cl)c([N+](=O)[O-])c1`, which melting point is on record?
Its melting point is 105 °C.

For `CC(=O)Cc1c[nH]c2ccccc12`, which melting point is on record?
The melting point was 116 °C.

For `Cc1cc(=O)n(N)c(=S)[nH]1`, which melting point is on record?
The melting point was 262 °C.

For `CC12CCC3C(CCC4CC(O)CCC43C)C1CCC2=O` (centres undefined), which melting point is on record?
The melting point was 185 °C.

With `CC(=O)Nc1cc2c(cc1/C=C/c1ccccc1)CC(c1ccccc1)N2C(C)=O` (centres undefined) as the molecule, how does the melting point read?
Its melting point is 272 °C.

Which melting point does the source give for `O=C(NCc1ccccc1)OCCO` here?
Its melting point is 40 °C.

Which melting point does the source give for `CC(=O)Nc1ccc(-c2ccc(F)cc2)cc1` here?
Its melting point is 205 to 207 °C.

With `O=S(=O)(c1ccc(Cl)cc1)N(C1CCNCC1)C1CC1` as the molecule, how does the melting point read?
Its melting point is 111 to 114 °C.

Which melting point does the source give for `O=C(O)c1c(F)c(Cl)c(F)c(Cl)c1F` here?
The melting point was 142 to 143 °C.

Which melting point does the source give for `O=C1C2C3C=CC(C3)C2C(=O)N1O` (centres undefined) here?
Its melting point is 167 to 170 °C.

For `Nc1cc2c3ccccc3ccc2c2ccccc12`, which melting point is on record?
Its melting point is 210 °C.

For `O=C=Nc1ccc(Br)cc1Cl`, which melting point is on record?
The melting point was 71 to 75 °C.

With `Cc1ccc2cc[nH]c2c1` as the molecule, how does the melting point read?
Its melting point is 31 °C.

For `Cn1c(/C(C#N)=N/Nc2cc(Cl)ccc2Cl)nc2ccccc21`, which melting point is on record?
Its melting point is 245 °C.

Which melting point does the source give for `CCNc1cc2oc(=O)cc(C)c2cc1C` here?
Its melting point is 168 to 170 °C.

For `c1ccc(-c2cc3ccccn3c2)cc1`, which melting point is on record?
Its melting point is 211 to 214 °C.

For `Nc1c(Cl)cc(C(=O)O)cc1Cl`, which melting point is on record?
The melting point was 292 °C.

For `O=CC(C=O)c1ccccc1[N+](=O)[O-]`, which melting point is on record?
The melting point was 118 to 123 °C.

Which melting point does the source give for `N#Cc1c(F)c(F)c(F)c(F)c1C#N` here?
Its melting point is 83 °C.

With `NNC(=S)NCc1ccc2c(c1)OCO2` as the molecule, how does the melting point read?
The melting point was 158 to 160 °C.

For `CNC(=O)Oc1ccc(C)c(C)c1Cl`, which melting point is on record?
Its melting point is 124 °C.

For `O=C(O)c1ccc(-c2nccs2)cc1`, which melting point is on record?
The melting point was 239 to 241 °C.

For `FC(F)(F)C(F)(Br)C(F)(F)Br` (centres undefined), which melting point is on record?
Its melting point is -95 °C.

With `CCOC(=O)CNc1ccc(I)cc1` as the molecule, how does the melting point read?
Its melting point is 84 to 86 °C.

Which melting point does the source give for `Cc1ccc(OP(=O)(Oc2ccc(C)cc2)Oc2ccc(C)cc2)cc1` here?
Its melting point is 77.5 °C.

For `O=c1ccc2cc3ccoc3c(O)c2o1`, which melting point is on record?
The melting point was 252 °C.

With `N#CCC(=O)c1cccs1` as the molecule, how does the melting point read?
Its melting point is 112 °C.

Which melting point does the source give for `O=C(Oc1ccc(Cl)cc1Cl)c1ccc(C(=O)Oc2ccc(Cl)cc2Cl)cc1` here?
Its melting point is 217 °C.

For `CC1=C(O)C(=O)CC1`, which melting point is on record?
The melting point was 106 °C.

For `CC(=O)c1cccc(-c2ccccc2)c1`, which melting point is on record?
Its melting point is 36 °C.

For `Oc1c(CN2CCCCC2)ccc2ccccc12`, which melting point is on record?
Its melting point is 134 to 136 °C.

For `O=C(O)Cc1cccc(CC(=O)O)c1`, which melting point is on record?
Its melting point is 175 °C.

With `Cc1ccnc2c1ccc1cccnc12` as the molecule, how does the melting point read?
Its melting point is 145 °C.

For `CCC(Cl)C(C)Cl` (centres undefined), which melting point is on record?
The melting point was -77.3 °C.

With `Nc1ncnc2c1ncn2C1CC(O)C(CO)O1` (centres undefined) as the molecule, how does the melting point read?
The melting point was 185 to 187 °C.

Which melting point does the source give for `Cc1cc(Br)cc(Cl)c1O` here?
Its melting point is 45 to 47 °C.

With `CN(c1c(F)c(F)c(-c2c(F)c(F)c(F)c(F)c2F)c(F)c1F)[N+](=O)[O-]` as the molecule, how does the melting point read?
The melting point was 140 °C.

For `NNc1c(Cl)cc(Cl)cc1Cl`, which melting point is on record?
The melting point was 142 °C.

Which melting point does the source give for `CCOc1ccccc1[N+](=O)[O-]` here?
Its melting point is 2.2 °C.

Which melting point does the source give for `Cc1cc(C(=O)O)cc(Cl)c1N` here?
Its melting point is 274 to 277 °C.

For `S=C=Nc1ccc(I)cc1`, which melting point is on record?
Its melting point is 76 to 78 °C.

For `CCCCCCCCc1ccc(/N=N/c2ccc(OC(=O)CCCCCCC)cc2)cc1`, which melting point is on record?
Its melting point is 58 to 63 °C.

For `CC(=O)Nc1ccc(Br)cc1C`, which melting point is on record?
Its melting point is 160 to 163 °C.

With `CC(C)(C)OC(=O)N1CCN(c2ccc(CO)cc2)CC1` as the molecule, how does the melting point read?
The melting point was 109 to 111 °C.

For `Brc1ccc2c3c(cccc13)CC2`, which melting point is on record?
The melting point was 52 °C.

For `CCCCc1ccc(O)cc1`, which melting point is on record?
The melting point was 22 °C.

With `CCOC(=O)CC(=O)OCC` as the molecule, how does the melting point read?
Its melting point is -50 °C.

For `COC1C=CC23c4cc5c(cc4COC2(O)CN(C)C3C1)OCO5` (centres undefined), which melting point is on record?
Its melting point is 210 °C.

For `O=C1CCc2cc3c(cc2N1)NCCC3`, which melting point is on record?
The melting point was 235 °C.

For `CC(=O)Nc1cc(CCNC(=O)c2ccccc2)ccc1CCNC(=O)c1ccccc1`, which melting point is on record?
Its melting point is 176 °C.
